From EP0908457B1, “3-(1,2-benzisothiazol- and isoxazol-5-Y1)-2,4(1H,3H)-pyrimidinedione or thione and 3-(1,2-benzisothiazol- and isoxazol-5-y1)-4(3H)-pyrimidinone or thione herbicidal agents” (BASF AKTIENGESELLSCHAFT, priority 1997, dated 1999)

Tests used:
[1] = system: Echinochloa oryzoides (Ard.) Fritsch.; test: Preemergence weed control under flooded paddy conditions, ECHORC (Watergrass (Calif.)); format: in vivo; settings: flooded paddy; for ECHORC: preemergence weeds, herbicidal effect rating 0-9, three to four weeks after treatment; for herbicidal effect rating, ECHORC: preemergence, rated 3-4 weeks after treatment
Cyperus iria [2] = test: Preemergence weed control under flooded paddy conditions, CYPIR (Rice Flatsedge); format: in vivo; settings: flooded paddy; for CYPIR: preemergence weeds, herbicidal effect rating 0-9, three to four weeks after treatment; for herbicidal effect rating, CYPIR: preemergence, rated 3-4 weeks after treatment
[3] = system: Cyperus serotinus, Rottb.; test: Preemergence weed control under flooded paddy conditions, CYPSE (Flatsedge); format: in vivo; settings: for CYPSE: preemergence weeds, herbicidal effect rating 0-9, three to four weeks after treatment; for herbicidal effect rating, CYPSE: preemergence, rated 3-4 weeks after treatment
[4] = system: Monochoria vaginalis, Presl.; test: Preemergence weed control under flooded paddy conditions, MOOVA (Monochoria); format: in vivo; settings: flooded paddy; for MOOVA: preemergence weeds, herbicidal effect rating 0-9, three to four weeks after treatment; for herbicidal effect rating, MOOVA: preemergence, rated 3-4 weeks after treatment
Sagittaria pygmaea, L. [5] = test: Preemergence weed control under flooded paddy conditions, SAGPY (Arrowhead (Pygmaea)); format: in vivo; settings: flooded paddy; for SAGPY: preemergence weeds, herbicidal effect rating 0-9, three to four weeks after treatment; for herbicidal effect rating, SAGPY: preemergence, rated 3-4 weeks after treatment
[6] = system: Echinochloa oryzoides (Ard.) Fritsch.; test: Postemergence weed control under flooded paddy conditions, ECHORC (Watergrass (Calif.)); format: in vivo; settings: rated three to four weeks after treatment
Cyperus iria [7] = test: Postemergence weed control under flooded paddy conditions, CYPIR (Rice Flatsedge); format: in vivo; settings: rated three to four weeks after treatment
[8] = system: Cyperus serotinus, Rottb.; test: Postemergence weed control under flooded paddy conditions, CYPSE (Flatsedge); format: in vivo; settings: rated three to four weeks after treatment
[9] = system: Monochoria vaginalis, Presl.; test: Postemergence weed control under flooded paddy conditions, MOOVA (Monochoria); format: in vivo; settings: rated three to four weeks after treatment
Sagittaria pygmaea, L. [10] = test: Postemergence weed control under flooded paddy conditions, SAGPY (Arrowhead (Pygmaea)); format: in vivo; settings: rated three to four weeks after treatment
[11] = system: Oryza sativa, (L.) Tebonnet; test: Rice tolerance to post-transplant applications under flooded paddy conditions (Example 187), ORYSAT (Rice, Tebonnet); settings: for ORYSAT: herbicidal effect rating 0-9, three to four weeks after treatment; for herbicidal effect rating ORYSAT: rated 3-4 weeks after treatment; on herbicidal effect rating ORYSAT: meaning of each grade not given here
[12] = system: Oryza sativa, (L.) Tebonnet; test: Rice tolerance to post-transplant applications under flooded paddy conditions (Example 188), ORYSAT (Rice, Tebonnet); settings: rated three to four weeks after treatment

COc1ccc(I)cc1-c1nsc2ccc(-n3c(=O)cc(C(F)(F)F)n(C)c3=O)cc12 [Example 448, 2,4(1H,3H)-Pyrimidinedione, 3-[3-(5-iodo-2-methoxyphenyl)-1,2-benzisothiazol-5-yl]-1-methyl-6-(trifluoromethyl)-]
3.5: SAGPY (Sagittaria pygmaea, L. [5]; 0.2500 kg/ha) | ORYSAT ([11]; 0.0320 kg/ha)
1.0: herbicidal effect rating, ECHORC ([6]; Rate 0.1250 kg/ha) | herbicidal effect rating, MOOVA ([9]; Rate 0.1250 kg/ha) | herbicidal effect rating, ORYSAT (rice tolerance) ([12]; Rate 0.1250 kg/ha)
8.5: CYPIR (Cyperus iria [2]; 0.0320 kg/ha)
4.5: CYPSE ([3]; 0.0320 kg/ha) | CYPSE ([3]; 0.0620 kg/ha) | CYPSE ([3]; 0.1250 kg/ha)
0.0: SAGPY (Sagittaria pygmaea, L. [5]; 0.0320 kg/ha) | herbicidal effect rating, ECHORC ([6]; Rate 0.0620 kg/ha) | herbicidal effect rating, CYPSE ([8]; Rate 0.0620 kg/ha) | herbicidal effect rating, CYPSE ([8]; Rate 0.1250 kg/ha) | herbicidal effect rating, CYPSE ([8]; Rate 0.2500 kg/ha) | herbicidal effect rating, MOOVA ([9]; Rate 0.0620 kg/ha) | herbicidal effect rating, SAGPY (Sagittaria pygmaea, L. [10]; Rate 0.0620 kg/ha) | herbicidal effect rating, SAGPY (Sagittaria pygmaea, L. [10]; Rate 0.1250 kg/ha) | herbicidal effect rating, SAGPY (Sagittaria pygmaea, L. [10]; Rate 0.2500 kg/ha) | herbicidal effect rating, ORYSAT (rice tolerance) ([12]; Rate 0.0620 kg/ha)
2.0: herbicidal effect rating, ECHORC ([6]; Rate 0.2500 kg/ha) | herbicidal effect rating, ORYSAT (rice tolerance) ([12]; Rate 0.2500 kg/ha)
7.0: herbicidal effect rating, CYPIR (Cyperus iria [7]; Rate 0.1250 kg/ha)
6.5: CYPSE ([3]; 0.2500 kg/ha)
4.0: herbicidal effect rating, MOOVA ([9]; Rate 0.2500 kg/ha) | ORYSAT ([11]; 0.0620 kg/ha) | ORYSAT ([11]; 0.1250 kg/ha) | ORYSAT ([11]; 0.2500 kg/ha)
1.5: SAGPY (Sagittaria pygmaea, L. [5]; 0.0620 kg/ha)
9.0: ECHORC ([1]; 0.0320 kg/ha) | ECHORC ([1]; 0.0620 kg/ha) | ECHORC ([1]; 0.1250 kg/ha) | ECHORC ([1]; 0.2500 kg/ha) | CYPIR (Cyperus iria [2]; 0.0620 kg/ha) | CYPIR (Cyperus iria [2]; 0.1250 kg/ha) | CYPIR (Cyperus iria [2]; 0.2500 kg/ha) | MOOVA ([4]; 0.0320 kg/ha) | MOOVA ([4]; 0.0620 kg/ha) | MOOVA ([4]; 0.1250 kg/ha) | MOOVA ([4]; 0.2500 kg/ha) | herbicidal effect rating, CYPIR (Cyperus iria [7]; Rate 0.2500 kg/ha)
2.5: SAGPY (Sagittaria pygmaea, L. [5]; 0.1250 kg/ha)

Cc1ccc(OCC(=O)OCC2(c3ccccc3)CC2)c(-c2nsc3ccc(-n4c(=O)cc(C(F)(F)F)n(C)c4=O)cc23)c1 [Example 517, Acetic acid, {{2-{5-[3,6-dihydro-3-methyl-2,6-dioxo-4-(trifluoromethyl)-1(2H)-pyrimidinyl]-1,2-benzisothiazol-3-yl}-p-tolyl}oxy}-, (1-phenylcyclopropyl)methyl ester]
9.0: herbicidal effect rating, ECHORC ([1]; Rate 0.0320 kg/ha) | herbicidal effect rating, ECHORC ([1]; Rate 0.0620 kg/ha) | herbicidal effect rating, ECHORC ([1]; Rate 0.2500 kg/ha) | herbicidal effect rating, MOOVA ([4]; Rate 0.0320 kg/ha) | herbicidal effect rating, MOOVA ([4]; Rate 0.0620 kg/ha) | herbicidal effect rating, MOOVA ([4]; Rate 0.1250 kg/ha) | herbicidal effect rating, MOOVA ([4]; Rate 0.2500 kg/ha) | herbicidal effect rating, CYPIR (Cyperus iria [7]; Rate 0.1250 kg/ha) | herbicidal effect rating, CYPIR (Cyperus iria [7]; Rate 0.2500 kg/ha) | herbicidal effect rating, MOOVA ([9]; Rate 0.0320 kg/ha) | herbicidal effect rating, MOOVA ([9]; Rate 0.0620 kg/ha) | herbicidal effect rating, MOOVA ([9]; Rate 0.1250 kg/ha) | herbicidal effect rating, MOOVA ([9]; Rate 0.2500 kg/ha)
3.0: herbicidal effect rating, CYPSE ([3]; Rate 0.0320 kg/ha) | herbicidal effect rating, CYPIR (Cyperus iria [7]; Rate 0.0320 kg/ha) | herbicidal effect rating ORYSAT ([11]; Rate 0.2500 kg/ha)
6.5: herbicidal effect rating, CYPIR (Cyperus iria [2]; Rate 0.0620 kg/ha)
5.0: herbicidal effect rating, CYPIR (Cyperus iria [7]; Rate 0.0620 kg/ha)
1.5: herbicidal effect rating ORYSAT ([11]; Rate 0.1250 kg/ha)
8.0: herbicidal effect rating, ECHORC ([1]; Rate 0.1250 kg/ha)
4.5: herbicidal effect rating, CYPSE ([3]; Rate 0.0620 kg/ha) | herbicidal effect rating, CYPSE ([3]; Rate 0.1250 kg/ha)
7.0: herbicidal effect rating, CYPIR (Cyperus iria [2]; Rate 0.2500 kg/ha)
0.0: herbicidal effect rating, CYPSE ([3]; Rate 0.2500 kg/ha) | herbicidal effect rating, SAGPY (Sagittaria pygmaea, L. [5]; Rate 0.0320 kg/ha) | herbicidal effect rating, SAGPY (Sagittaria pygmaea, L. [5]; Rate 0.0620 kg/ha) | herbicidal effect rating, SAGPY (Sagittaria pygmaea, L. [5]; Rate 0.1250 kg/ha) | herbicidal effect rating, SAGPY (Sagittaria pygmaea, L. [5]; Rate 0.2500 kg/ha) | herbicidal effect rating, ECHORC ([6]; Rate 0.0320 kg/ha) | herbicidal effect rating, ECHORC ([6]; Rate 0.0620 kg/ha) | herbicidal effect rating, ECHORC ([6]; Rate 0.1250 kg/ha) | herbicidal effect rating, ECHORC ([6]; Rate 0.2500 kg/ha) | herbicidal effect rating, CYPSE ([8]; Rate 0.0320 kg/ha) | herbicidal effect rating, CYPSE ([8]; Rate 0.0620 kg/ha) | herbicidal effect rating, CYPSE ([8]; Rate 0.1250 kg/ha) | herbicidal effect rating, CYPSE ([8]; Rate 0.2500 kg/ha) | herbicidal effect rating, SAGPY (Sagittaria pygmaea, L. [10]; Rate 0.0320 kg/ha) | herbicidal effect rating, SAGPY (Sagittaria pygmaea, L. [10]; Rate 0.0620 kg/ha) | herbicidal effect rating, SAGPY (Sagittaria pygmaea, L. [10]; Rate 0.1250 kg/ha) | herbicidal effect rating, SAGPY (Sagittaria pygmaea, L. [10]; Rate 0.2500 kg/ha) | herbicidal effect rating ORYSAT ([11]; Rate 0.0320 kg/ha) | herbicidal effect rating ORYSAT ([11]; Rate 0.0620 kg/ha) | herbicidal effect rating, ORYSAT (rice tolerance) ([12]; Rate 0.0320 kg/ha) | herbicidal effect rating, ORYSAT (rice tolerance) ([12]; Rate 0.0620 kg/ha) | herbicidal effect rating, ORYSAT (rice tolerance) ([12]; Rate 0.1250 kg/ha) | herbicidal effect rating, ORYSAT (rice tolerance) ([12]; Rate 0.2500 kg/ha)
5.5: herbicidal effect rating, CYPIR (Cyperus iria [2]; Rate 0.0320 kg/ha) | herbicidal effect rating, CYPIR (Cyperus iria [2]; Rate 0.1250 kg/ha)
